We go through six molecules from patent publication US20090035364A1, “PARA-SUBSTITUTED 2-ALKOXYPHENOL COMPOUNDS” (priority 2006, published 2009).

Data set [1] in a line: Application in toothpaste: panelist's teeth brushed with toothgel containing the compound. It is filed as in vivo, human. To be noted: 0.10 g of 10% solution in ethanol in opaque toothgel with peppermint oil and saccharin; after brushing and rinsing. As to the method:
The chemicals are mixed in the toothgel, a piece of toothgel is put on a toothbrush and a panelist's teeth are brushed. The mouth is rinsed with water and the water is spat out. […] The cooling perception lasts for 45 minutes.

The nature of data set [2]: Cooling intensity: panelists taste aqueous solutions, compared with menthol at 2 ppm. It is filed as in vivo, human. To be noted: tasted by a small group of panelists.

For `COc1cc(COC(c2ccccc2)c2ccccc2)ccc1O` [Example 4, 4-((benzhydryloxy)methyl)-2-methoxyphenol], in data set [1], the “Cooling sensation felt by the panelist” value is “intense cooling sensation” and the “Duration of cooling perception” value stood at 45 min. In data set [2], the “Concentration having a cooling intensity similar to or slightly higher than that of a solution of menthol at 2 ppm” value is on record as 1.0 ppm.
The melting point is the temperature, or range, at which the solid turns liquid. On to `CCOc1cc(CNC(c2ccccc2)c2ccccc2)ccc1O` [Example 6, 4-((benzhydrylamino)methyl)-2-ethoxyphenol], for which the melting point lay within 89 to 91 °C.
For the molecule `CCNC(=O)C1CC(C)CCC1C(C)C` (centres unmarked) [N-ethyl p-menthanecarboxamide (WS-3), N-ethyl p-menthanecarboxamide, reference compound], the “Concentration having a cooling intensity similar to or slightly higher than that of a solution of menthol at 2 ppm” value in data set [2] came to 1.5 ppm.
Still for that read-out and setting: in the case of `CC1CCC(C(C)C)C(O)C1` (centres unmarked) [I-Menthol, reference compound] it was 2.0 ppm.
`COc1cc(CNC2c3ccccc3-c3ccccc32)ccc1O` [Example 5, 4-((9H-fluoren-9-ylamino)methyl)-2-methoxyphenol] had a melting point of 148 to 150 °C.
Regarding `COc1cc(CNC(c2ccccc2)c2ccccc2)ccc1O` [Example 1, 4-((benzhydrylamino)methyl)-2-methoxyphenol], the “Concentration having a cooling intensity similar to or slightly higher than that of a solution of menthol at 2 ppm” value in data set [2] came to 0.5 ppm.
